For 23 molecules, IC50 results are on record in US8431596B2 (Cancer Research Technology Limited, priority 2007, dated 2013).

pIC50: −log10 of the molar value. Where only a bound is given, the exact number is not on record here.

In general, pIC50 refers to the IC50 on a negative log10 scale, so that one unit is a factor of ten.

Experiment [1] relates to Axl activation via the downstream phosphorylation of Akt (serine 473). The experiment in a line: AXL Inhibition Cell Based ELISA Assay (FACE kit, Gas6-stimulated MDA-MB-231 cells). The settings on record: Homo sapiens, first data set, Gas6 200 ng/ml, pS473 Akt. The method, then: AXL Inhibition Cell Based ELISA Assay
This cell based ELISA assay is a simple cell-based method used to monitor activation of proteins by phosphorylation. The Active Motif, Fast Activated Cell-based ELISA (FACE) kit (Active Motif Cat No: 48120) was used in this case to monitor the inhibition, by test compounds, of Axl activation via the downstream phosphorylation of Akt (serine 473). In this system, cells are cultured in 96 well plates and treated with test compounds and Axl is activated by the introduction of Gas6 (Axl ligand). The inhibition of Axl can be directly assessed via the reduction of pS^473 Akt levels.
Active Motif FACE Kit reagents (Active Motif Cat. No: 48120(AKT)).
10% hydrogen peroxide (Sigma H1009).
10% Sodium azide (Sigma 7128).
37% Formaldehyde (Sigma F8775).
Axl/Fc conjugate (R&D Systems 154-AL).
Recombinant mouse Gas6 (R&D Systems 986-GS-025).
All cell incubations were carried out in humidified incubators set at 5% CO2 and 37° C. […]
Immunostaining (carried out as outlined in FACE kit protocol). […] 100 μL developing solution was added to each well and monitored for colour change to medium to dark blue (2 to 20 minutes). 100 μL of stop solution was then added and absorbance was read at 450 nm within 5 minutes of addition.
Crystal Violet cell staining. After reading absorbance at 450 nm, the plates were washed twice with 200 μL wash buffer and twice with 200 μL PBS. […]

Experiment [2] concerns the target T1, AXL (human catalytic domain) (Homo sapiens, UniProt P30530).
T1 construct: purchased Upstate Ltd. 14-512
T1 sequence (P30530 473-894): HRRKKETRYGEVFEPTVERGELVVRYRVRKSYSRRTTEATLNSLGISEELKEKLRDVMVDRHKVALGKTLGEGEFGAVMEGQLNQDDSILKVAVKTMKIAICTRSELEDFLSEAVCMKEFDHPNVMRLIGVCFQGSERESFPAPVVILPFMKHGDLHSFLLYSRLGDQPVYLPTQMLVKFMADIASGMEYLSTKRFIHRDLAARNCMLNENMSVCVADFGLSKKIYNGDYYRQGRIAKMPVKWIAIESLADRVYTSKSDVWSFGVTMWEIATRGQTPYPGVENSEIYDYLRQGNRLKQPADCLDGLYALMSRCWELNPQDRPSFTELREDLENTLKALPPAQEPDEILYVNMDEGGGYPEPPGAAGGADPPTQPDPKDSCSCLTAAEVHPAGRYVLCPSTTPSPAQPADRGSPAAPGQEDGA
In words: AXL (human catalytic domain) Enzyme Activity Assay (IMAP fluorescence polarisation). Format: biochemical. In outline:
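IMAP FP readout (Ex485/Em535, after overnight binding) measured inhibition of the human AXL catalytic domain (aa473-894, 15 nM final) acting on 100 nM 5FAM-CSK-tide at 150 μM ATP, equal to KM. Reactions ran 60 min at room temperature in pH 7.0 HEPES buffer; IC50 from 10-point curves.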

Where [3] appears, read: first data set, recombinant AXL isoform 1 aa473-894, 150 μM ATP.
Where [4] appears, read: further data set (WW-001 through WW-169, XX-001 through XX-469, YY-001 through YY-016, ZZ-001 through ZZ-003), 150 μM ATP.

Regarding `CCNCCOc1ccc(Nc2nc3cccc(-c4ccc5c(c4)OCCO5)n3n2)cc1` [XX-070], the negative-log IC50 (pIC50) in experiment [1] was 5.99; in experiment [2] (setting [3]), greater than 6.00; in experiment [2] (setting [4]), no less than 7.00.

For `CN1CCOc2cc(-c3cccc4nc(NC(=O)C5CC5)nn34)ccc21` [WW-104], the values for the negative-log IC50 (pIC50) in experiment [1], in experiment [2] (setting [3]) and in experiment [2] (setting [4]) were 5.07, greater than 6.00 and 6.00 to 7.00, respectively.

`Cn1nccc1-c1cccc(-c2cccc3nc(Nc4ccc(OCCN5CCCC5)cc4)nn23)c1` [XX-169] showed a negative logarithm of the IC50 (pIC50) in experiment [2] (setting [4]) of 6.00 to 7.00.

`CC(C)(C)CNC(=O)Cn1cc(-c2cccc3nc(Nc4ccc(OCCN5CCCC5)cc4)nn23)cn1` [XX-092, N-(2,2-Dimethyl-propyl)-2-(4-{2-[4-(2-pyrrolidin-1-yl-ethoxy)-phenylamino]-[1,2,4]triazolo[1,5-a]pyridin-5-yl}-pyrazol-1-yl)-acetamide] had a pIC50 in experiment [2] (setting [4]) of 5.00 to 6.00.

In experiment [2] (setting [4]), `O=C(Cn1cc(-c2cccc3nc(Nc4ccc(OCCN5CCCC5)cc4)nn23)cn1)c1ccccc1` [XX-346] gave a pIC50 of 6.00 to 7.00.

On to `COc1ccc(-c2cccc3nc(Nc4ccc5c(c4)OCCCO5)nn23)cc1` [XX-062], for which the pIC50 in experiment [2] (setting [3]) and in experiment [2] (setting [4]) was 5.00 to 6.00 throughout.

As to `O=C(Cn1cc(-c2cccc3nc(Nc4ccc(OCCN5CCCC5)cc4)nn23)cn1)NCCO` [XX-436], the pIC50 in experiment [2] (setting [4]) was 6.00 to 7.00.

Molecule `CN(C)C(=O)c1ccc(-c2cccc3nc(Nc4ccc(OCCN5CCCC5)cc4)nn23)cc1` [XX-239] gave a pIC50 in experiment [2] (setting [4]) of 5.00 to 6.00.

In the case of `Cn1cc(-c2cccc3nc(Nc4ccc(OCCN5CCCC5)cc4)nn23)cn1` [XX-017], the negative logarithm of the IC50 (pIC50) in experiment [2] (setting [3]) is greater than 6.00; in experiment [2] (setting [4]), 6.00 to 7.00.

As for `COc1cccc(Nc2cccc3nc(NC(=O)C4CC4)nn23)c1` [WW-160], the pIC50 in experiment [2] (setting [3]) and in experiment [2] (setting [4]) was 5.00 to 6.00 in each case.

As for `COc1ccc(-c2cccc3nc(Nc4ccc(OCCN(C)Cc5ccc(N)cc5)cc4)nn23)cc1` [XX-067], the figures for the pIC50 in experiment [2] (setting [3]) and in experiment [2] (setting [4]) were greater than 6.00 and no less than 7.00, respectively.

In experiment [2] (setting [4]), `Cc1ccc(-c2nnc(COc3cccc(-c4cccc5nc(Nc6ccc(OCCN7CCCC7)cc6)nn45)c3)o2)cc1` [XX-406] had a negative logarithm of the IC50 (pIC50) of 5.00 to 6.00.

For the molecule `c1ccc(CNc2ccc(-c3cccc4nc(Nc5ccc(OCCN6CCCC6)cc5)nn34)cc2)cc1` [XX-252], the negative-log IC50 (pIC50) in experiment [2] (setting [4]) is 6.00 to 7.00.

Molecule `COc1cccc(NC(=O)Nc2cccc(-c3cccc4nc(Nc5ccc(OCCN6CCCC6)cc5)nn34)c2)c1` [XX-230] showed a negative-log IC50 (pIC50) in experiment [2] (setting [4]) of 5.00 to 6.00.

Consider `COc1ccc(-c2cccc3nc(Nc4ccc(OCCN(C)C)cc4)nn23)cc1` [XX-006], for which the pIC50 in experiment [2] (setting [3]) is greater than 6.00; in experiment [2] (setting [4]), 6.00 to 7.00.

As to `CN(C)CCOc1ccc(Nc2nc3cccc(-c4ccc5c(c4)CCO5)n3n2)cc1` [XX-053], the negative logarithm of the IC50 (pIC50) in experiment [2] (setting [3]) is greater than 6.00; in experiment [2] (setting [4]) it was no less than 7.00.

`Cc1ccc(COc2cccc(-c3cccc4nc(Nc5ccc(OCCN6CCCC6)cc5)nn34)c2)cc1` [XX-457] showed a pIC50 in experiment [2] (setting [4]) of 5.00 to 6.00.

Regarding `O=C(Nc1cccc(-c2cccc3nc(Nc4ccc(OCCN5CCCC5)cc4)nn23)c1)c1cccnc1` [XX-180], the pIC50 in experiment [2] (setting [4]) was 6.00 to 7.00.

Take `O=C(Nc1nc2cccc(-c3cccc(Cl)c3)n2n1)C1CC1` [WW-004, Cyclopropanecarboxylic acid [5-(3-chloro-phenyl)-[1,2,4]triazolo[1,5-a]pyridin-2-yl]-amide]: the negative-log IC50 (pIC50) in experiment [2] (setting [3]) and in experiment [2] (setting [4]) was 5.00 to 6.00 each time.

With `COCc1ccc(-c2cccc3nc(NC(=O)C4CC4)nn23)cc1` [WW-016], the pIC50 in experiment [2] (setting [3]) and in experiment [2] (setting [4]) was 5.00 to 6.00 each time.

As to `COc1c(C)cc(-c2cccc3nc(NC(=O)C4CC4)nn23)cc1C` [WW-095], the pIC50 in experiment [2] (setting [3]) and in experiment [2] (setting [4]) was 5.00 to 6.00 throughout.

Consider `NC(=O)COc1ccc(Nc2nc3cccc(-c4ccc5c(c4)OCCO5)n3n2)cc1` [XX-073], for which the negative-log IC50 (pIC50) in experiment [2] (setting [3]) was greater than 6.00; in experiment [2] (setting [4]), 6.00 to 7.00.

Consider `FC(F)(F)Oc1cccc(Cn2cc(-c3cccc4nc(Nc5ccc(OCCN6CCCC6)cc5)nn34)cn2)c1` [XX-366], for which, in experiment [2] (setting [4]), the pIC50 is 6.00 to 7.00.
